Reference: patent US20230265151A1, “GIP/GLP1 CO-AGONIST COMPOUNDS” (priority 2020, published 2023)
Read-outs that look alike come from different tables or passages of the source.

Key:
[1] = biological target: T1, human Gcg receptor (hGcgR) (Homo sapiens, UniProt P47871); test: [125I]-Glucagon binding, SPA with membranes of HEK293 cells expressing hGcgR
T1 construct: expressed in transfected cells; crude membranes

[2] = biological target: T2, human GLP-1 receptor (hGLP-1R) (Homo sapiens, UniProt P43220); test: [125I]-GLP-1 binding, SPA with membranes of HEK293 cells expressing hGLP-1R
T2 construct: expressed in transfected cells; crude membranes
T2 sequence (P43220 24-463): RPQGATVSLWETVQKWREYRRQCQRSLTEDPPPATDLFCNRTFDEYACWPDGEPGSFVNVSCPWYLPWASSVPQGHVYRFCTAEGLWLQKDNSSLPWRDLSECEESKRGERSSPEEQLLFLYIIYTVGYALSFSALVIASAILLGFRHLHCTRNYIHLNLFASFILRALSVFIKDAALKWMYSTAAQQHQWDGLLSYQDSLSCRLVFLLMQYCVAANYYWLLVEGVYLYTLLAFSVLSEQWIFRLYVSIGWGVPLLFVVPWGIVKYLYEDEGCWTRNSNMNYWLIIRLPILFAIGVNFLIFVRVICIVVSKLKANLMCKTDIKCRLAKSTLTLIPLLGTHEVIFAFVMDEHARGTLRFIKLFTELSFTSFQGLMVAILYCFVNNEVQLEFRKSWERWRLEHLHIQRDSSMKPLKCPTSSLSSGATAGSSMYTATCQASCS

[3] = biological target: T3, human GIP receptor (hGIPR) (Homo sapiens, UniProt P48546); test: [125I]-GIP binding, SPA with membranes of CHO cells expressing hGIPR
T3 construct: expressed in transfected cells; crude membranes
T3 sequence (P48546 22-466): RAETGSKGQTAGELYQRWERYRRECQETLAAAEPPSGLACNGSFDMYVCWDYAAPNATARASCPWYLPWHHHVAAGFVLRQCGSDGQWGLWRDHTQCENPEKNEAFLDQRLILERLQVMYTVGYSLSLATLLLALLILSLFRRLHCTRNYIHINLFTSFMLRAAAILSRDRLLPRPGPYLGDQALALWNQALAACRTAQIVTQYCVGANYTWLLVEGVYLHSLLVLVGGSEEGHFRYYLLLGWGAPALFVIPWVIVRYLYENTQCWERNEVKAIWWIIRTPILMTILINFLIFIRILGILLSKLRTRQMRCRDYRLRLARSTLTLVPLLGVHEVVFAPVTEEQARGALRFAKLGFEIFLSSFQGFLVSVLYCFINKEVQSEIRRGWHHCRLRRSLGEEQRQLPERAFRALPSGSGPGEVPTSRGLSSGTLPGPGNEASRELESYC

[4] = human GcgR, geometric mean (SEM, n), read-out: Binding Affinity Ki, nM (SEM, n) hGCGR
[5] = human GLP-1R, geometric mean (SEM, n), read-out: Binding Affinity Ki, nM (SEM, n) hGLP-1R
[6] = human GIPR, geometric mean (SEM, n), read-out: Binding Affinity Ki, nM (SEM, n) hGIPR

T1 sequence (P47871 26-477): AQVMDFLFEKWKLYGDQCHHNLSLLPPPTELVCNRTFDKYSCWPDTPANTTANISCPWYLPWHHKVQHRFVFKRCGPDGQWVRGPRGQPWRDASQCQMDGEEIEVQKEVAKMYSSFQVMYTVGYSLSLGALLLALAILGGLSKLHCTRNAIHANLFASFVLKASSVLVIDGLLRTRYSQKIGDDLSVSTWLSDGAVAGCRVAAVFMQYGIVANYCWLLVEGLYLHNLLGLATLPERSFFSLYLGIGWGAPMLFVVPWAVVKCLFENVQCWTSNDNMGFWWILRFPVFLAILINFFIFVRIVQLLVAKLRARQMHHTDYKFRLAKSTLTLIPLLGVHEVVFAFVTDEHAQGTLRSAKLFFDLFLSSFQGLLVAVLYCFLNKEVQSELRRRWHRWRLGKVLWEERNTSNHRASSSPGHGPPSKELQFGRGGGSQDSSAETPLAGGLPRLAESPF

Structure (SMILES)	Ki [1, 4] [nM]	Ki [2, 5] [nM]	Ki [3, 6] [nM]	Ki [1] [nM]	Ki [2] [nM]	Ki [3] [nM]
CC[C@H](C)[C@H](NC(=O)[C@H](CC(C)C)NC(=O)[C@](C)(Cc1ccc(O)cc1)NC(=O)[C@@H](CCC(=O)O)NC(=O)[C@@H](NC(=O)[C@H](Cc1ccccc1)NC(=O)[C@H](CCC(=O)O)NC(=O)C(C)(C)NC(=O)[C@H](CCC(N)=O)NC(=O)[C@H](C)NC(=O)[C@H](CCCCNC(=O)COCCOCCNC(=O)COCCOCCNC(=O)CC[C@H](NC(=O)CCCCCCCCCCCCC(=O)O)C(=O)O)NC(=O)[C@H](CCCN)NC(=O)[C@H](CC(=O)O)NC(=O)[C@H](CC(C)C)NC(=O)[C@](C)(CC(C)C)NC(=O)[C@@H](NC(=O)C(C)(C)NC(=O)[C@@H](NC(=O)[C@H](CC(=O)O)NC(=O)[C@H](CO)NC(=O)[C@@H](NC(=O)[C@](C)(Cc1ccccc1F)NC(=O)[C@@H](NC(=O)CNC(=O)[C@H](CCC(=O)O)NC(=O)C(C)(C)NC(=O)[C@@H](N)Cc1ccc(O)cc1)[C@@H](C)O)[C@@H](C)O)C(C)C)[C@@H](C)CC)[C@@H](C)CC)C(=O)N[C@@H](CCC(=O)O)C(=O)NCC(=O)NCC(=O)N[C@@H](CCCCNC(=O)COCCOCCNC(=O)COCCOCCNC(=O)CC[C@H](NC(=O)CCCCCCCCCCCCC(=O)O)C(=O)O)C(=O)N[C@@H](CO)C(=O)N[C@@H](CO)C(=O)NCC(=O)N[C@@H](C)C(=O)N1CCC[C@H]1C(=O)N1CCC[C@H]1C(=O)N1CCC[C@H]1C(=O)N[C@@H](CO)C(N)=O [Example 91]	> 955	1.26	0.126	–	–	–
CC[C@H](C)[C@H](NC(=O)[C@H](CC(C)C)NC(=O)[C@](C)(Cc1ccc(O)cc1)NC(=O)[C@@H](CCC(=O)O)NC(=O)[C@@H](NC(=O)[C@H](Cc1ccccc1)NC(=O)[C@H](CCC(=O)O)NC(=O)C(C)(C)NC(=O)[C@H](CCC(N)=O)NC(=O)[C@H](C)NC(=O)[C@H](CCCCNC(=O)COCCOCCNC(=O)COCCOCCNC(=O)CC[C@H](NC(=O)CCCCCCCCCCCCC(=O)O)C(=O)O)NC(=O)[C@H](CCCN)NC(=O)[C@H](CC(=O)O)NC(=O)[C@H](CC(C)C)NC(=O)[C@](C)(CC(C)C)NC(=O)[C@@H](NC(=O)[C@](C)(CO)NC(=O)[C@@H](NC(=O)[C@H](CC(=O)O)NC(=O)[C@H](CO)NC(=O)[C@@H](NC(=O)[C@](C)(Cc1ccccc1F)NC(=O)[C@@H](NC(=O)CNC(=O)[C@H](CCC(=O)O)NC(=O)C(C)(C)NC(=O)[C@@H](N)Cc1ccc(O)cc1)[C@@H](C)O)[C@@H](C)O)C(C)C)[C@@H](C)CC)[C@@H](C)CC)C(=O)N[C@@H](CCC(=O)O)C(=O)NCC(=O)NCC(=O)N[C@@H](CCCCNC(=O)COCCOCCNC(=O)COCCOCCNC(=O)CC[C@H](NC(=O)CCCCCCCCCCCCC(=O)O)C(=O)O)C(=O)N[C@@H](CO)C(=O)N[C@@H](CO)C(=O)NCC(=O)N[C@@H](C)C(=O)N1CCC[C@H]1C(=O)N1CCC[C@H]1C(=O)N1CCC[C@H]1C(=O)N[C@@H](CO)C(N)=O [Example 212]	> 955	1.17	0.161	–	–	–
CC[C@H](C)[C@H](NC(=O)[C@H](CC(C)C)NC(=O)[C@](C)(Cc1ccc(O)cc1)NC(=O)[C@H](CCCCNC(=O)CC[C@H](NC(=O)COCCOCCNC(=O)COCCOCCNC(=O)CC[C@H](NC(=O)CCCCCCCCCOc1ccc(C(=O)O)cc1)C(=O)O)C(=O)O)NC(=O)[C@@H](NC(=O)[C@H](Cc1ccccc1)NC(=O)[C@H](CCCN)NC(=O)C(C)(C)NC(=O)[C@H](CCC(N)=O)NC(=O)[C@H](C)NC(=O)[C@H](CCC(N)=O)NC(=O)[C@H](CCCN)NC(=O)[C@H](CC(=O)O)NC(=O)[C@H](CC(C)C)NC(=O)[C@](C)(CC(C)C)NC(=O)[C@@H](NC(=O)C(C)(C)NC(=O)[C@H](Cc1ccncc1)NC(=O)[C@H](CC(=O)O)NC(=O)[C@H](CO)NC(=O)[C@@H](NC(=O)[C@](C)(Cc1ccccc1F)NC(=O)[C@@H](NC(=O)CNC(=O)[C@H](CCC(=O)O)NC(=O)C(C)(C)NC(=O)[C@@H](N)Cc1ccc(O)cc1)[C@@H](C)O)[C@@H](C)O)[C@@H](C)CC)[C@@H](C)CC)C(=O)N[C@@H](CCCCNC(=O)CC[C@H](NC(=O)COCCOCCNC(=O)COCCOCCNC(=O)CC[C@H](NC(=O)CCCCCCCCCOc1ccc(C(=O)O)cc1)C(=O)O)C(=O)O)C(=O)NCC(=O)NCC(=O)N1CCC[C@H]1C(=O)N[C@@H](CO)C(=O)N[C@@H](CO)C(=O)NCC(=O)N[C@@H](C)C(=O)N1CCC[C@H]1C(=O)N1CCC[C@H]1C(=O)N1CCC[C@H]1C(=O)N[C@@H](CO)C(N)=O [Example 483]	–	–	–	151	0.263	0.0236
